US20240239801A1, “PYRIMIDO[5,4,D]PYRIMIDINE COMPOUNDS, COMPOSITIONS COMPRISING THEM AND USES THEREOF” (Université de Montréal, priority 2021, published 2024)
Read-outs that look alike come from different tables or passages of the source.

Assays:
[1] = tested on: HCT116 pERK; test: Phospho-ERK inhibition, AlphaLISA SureFire Ultra p-ERK 1/2; format: cell-based, human; conditions: for HCT116 (Ymin %): lowest value of the pERK IC50 curve
Procedure: (§1) All cancer cell lines (A375, A101D, A2058, RKO, HT29 SK-MEL 30, IPC298, HepG2, HCT-116, Lovo, SW620, SW480, NCI-H358, NCI-H2122, Calu-6, NCIH2087, NCIH1755, NCIH1666 and Mewo) were obtained from ATCC and cultured in RPMI-1640 medium (Gibco) supplemented with 5% heat inactivated fetal bovine serum (FBS, Wisent) at 37° C. under 5% CO2. Cells were maintained in T175 flasks (Greiner). They were passaged by removing the culture medium, washing once in 10 mL of room temperature Phosphate Buffered Saline (PBS; Wisent) and incubating at 37° C. with 2 mL of 0.05% Trypsin (Thermo-Fisher). Trypsin was then inactivated by adding complete growth medium and the cells were then replated in a T175 culture dish at the appropriate dilution. All cell lines were routinely tested for mycoplasma contamination. Tissue type and mutational status of each cell line can be found in Table B.
(§2) AlphaLISA® SureFire® Ultra™ p-ERK ½ (Thr202/Tyr204) analysis was conducted on cells plated in 100 μL of complete RPMI-1640 growth medium in 96-well flat-bottomed transparent dishes (Costar) at a density indicated in Table C. Cells were maintained overnight at 37° C. under 5% CO2 before treatment with compounds' dilution series for one hour. The cell density in cells/cm^2 corresponds to cell number divided by the area of one well of a 96-well plate ([…]).
(§3) In a dilution series 100 μL/well of test substance dilution prepared in complete RPMI-1640 growth media was added to the cells. The dilution series is selected so that ten concentrations cover a range from 30 μM or 10 μM to 0.33 nM. If necessary, the initial concentration of 10 μM is increased to 100 μM or lowered to 1 μM (as in the case of A375 and NCIH1666 cells, which are generally more sensitive to the compounds) and further dilution is carried out accordingly. The final concentration of DMSO in the assay is set at 0.5%.
(§4) After treatment, media was removed, and cells were lysed in 50 μL of 1× AlphaScreen Ultra Lysis Buffer (Perkin Elmer). The AlphaLISA® SureFire® Ultra™ p-ERK ½ (Thr202/Tyr2O4) (PerkinElmer) reactions were performed with 5 μL of cell lysate according to the manufacturer's specifications in 384-well proxyplates (Perkin Elmer) followed by overnight incubation of the reactions at room temperature in a humidified chamber. After completion of the reactions, the signals were recorded on an EnVision plate reader (Perkin Elmer) using built in AlphaLISA® settings.
(§5) The effect of each compound dilution on the pERK signal was expressed in % inhibition and calculated as follows. An internal 100% inhibition control (1 μM trametinib, cat. No. HY-10999; MedChem Express; CAS No. 871700-17-3) was included in each plate and used as a measure of pERK background. First, the value obtained for trametinib was subtracted from each data point. The average of DMSO (vehicle) controls (set as 0% inhibition) was established and used to calculate % inhibition:
(§6) The ability of each compound to inhibit pERK signal was expressed as an IC50 value obtained by plotting the inhibition values for each data point of a dilution series and fitting the obtained curves using a log(agonist) versus response−variable slope (four parameters) function using GraphPadPrism (V7.0).
(§7) When present, paradoxical pERK induction is inferred from the negative % inhibition values observed in the pERK IC50 curves of a compound.

[2] = tested on: SW480 pERK; test: as above; format: cell-based, human; conditions: for SW480 (Ymin %): lowest value of the pERK IC50 curve
Procedure: as §1, §2, §3, §4, §5, §6, §7

[3] = Table 3, 1 h treatment, read-out: SW480 PERK IC50
[4] = Table 2, 1 h treatment, read-out: SW480 PERK IC50 (UM)

| IC50 ([1]; Table 3, 1 h treatment) | IC50 [2, 3] | SMILES | HCT116 (Ymin %) ([1]; Table 3) | SW480 (Ymin %) ([2]; Table 3) | also measured |
| --- | --- | --- | --- | --- | --- |
| 10 to 30 µM | 10 to 30 µM | COc1ccc(S(=O)(=O)Nc2ccc(F)c(Nc3ncnc4cnc(OC)nc34)c2F)cc1 [Example 46] | 8% | 12% |  |
| 1 to 10 µM | 1 to 10 µM | COc1ccc(S(=O)(=O)Nc2ccc(F)c(Nc3ncnc4cnc(N5CC(F)C5)nc34)c2F)cc1 [Example 47] | 6% | −1% |  |
| 10 to 30 µM | 10 to 30 µM | COc1ccc(S(=O)(=O)Nc2ccc(F)c(Nc3ncnc4cnc(Oc5cccc(C#N)c5)nc34)c2F)cc1 [Example 49] | 8% | −9% |  |
| 0.5 to 1 µM | 0.5 to 1 µM | CO[C@@H]1CCN(S(=O)(=O)Nc2ccc(F)c(Nc3ncnc4cnc(-n5cnc6ccccc65)nc34)c2F)C1 [Example 59] | 11% | 2% |  |
| 0.5 to 1 µM | < 0.5 µM | COc1ccc(S(=O)(=O)Nc2ccc(F)c(Nc3ncnc4cnc(-n5cnc6c(N)cccc65)nc34)c2F)c(F)c1 [Example 79] | −6% | −2% |  |
| 10 to 30 µM | 10 to 30 µM | COc1ccc(S(=O)(=O)Nc2ccc(F)c(Nc3ncnc4cnc(N5CCC5)nc34)c2F)cc1 [Example 43] | 11% | 0% |  |
| 1 to 10 µM | 1 to 10 µM | CO[C@@H]1CCN(S(=O)(=O)Nc2ccc(F)c(Nc3ncnc4cnc(-n5nnc6ccccc65)nc34)c2F)C1 [Example 72] | 20% | 1% |  |
| 1 to 10 µM | 1 to 10 µM | Cc1ncn(-c2ncc3ncnc(Nc4c(F)ccc(NS(=O)(=O)c5ccc6c(c5)CCO6)c4F)c3n2)c1C [Example 65] | 4% | 5% |  |
| 1 to 10 µM | 1 to 10 µM | COc1ccc(S(=O)(=O)Nc2ccc(F)c(Nc3ncnc4cnc(-n5cnc(C)c5C)nc34)c2F)c(F)c1 [Example 53] | 15% | −4% |  |
| 1 to 10 µM | 0.5 to 1 µM | O=S(=O)(Nc1ccc(F)c(Nc2ncnc3cnc(-n4cnc5ccccc54)nc23)c1F)N1CCC(OC(F)F)C1 (centres unmarked) [Example 78] | 6% | 10% |  |
| 1 to 10 µM | 1 to 10 µM | CO[C@@H]1CCN(S(=O)(=O)Nc2ccc(F)c(Nc3ncnc4cnc(N5Cc6ccccc6C5)nc34)c2F)C1 [Example 67] | 6% | 18% |  |
| 1 to 10 µM | 1 to 10 µM | O=S(=O)(Nc1ccc(F)c(Nc2ncnc3cnc(-n4cnc5ccccc54)nc23)c1F)N1CC2CC2C1 (centres unmarked) [Example 74] | −3% | −7% |  |
| 1 to 10 µM | 1 to 10 µM | CC1CCN(S(=O)(=O)Nc2ccc(F)c(Nc3ncnc4cnc(-n5cnc6ccccc65)nc34)c2F)C1 (centres unmarked) [Example 73] | −2% | 7% |  |
| 1 to 10 µM | 1 to 10 µM | COCC1CCN(S(=O)(=O)Nc2ccc(F)c(Nc3ncnc4cnc(-n5cnc6ccccc65)nc34)c2F)C1 (centres unmarked) [Example 70] | 0% | 1% |  |

The next lines start with the compound.

| SMILES | IC50 ([1]; Table 3, 1 h treatment) | IC50 [2, 3] | HCT116 (Ymin %) ([1]; Table 3) | SW480 (Ymin %) ([2]; Table 3) | also measured |
| --- | --- | --- | --- | --- | --- |
| COc1ccc(S(=O)(=O)Nc2ccc(F)c(Nc3ncnc4cnc(-n5ccnc5)nc34)c2F)cc1 [Example 35] | 10 to 30 µM | 1 to 10 µM | −4% | 14% |  |
| COc1ccc(S(=O)(=O)Nc2ccc(F)c(Nc3ncnc4cnc(SC)nc34)c2F)c(OC)c1 [Example 19] |  |  |  |  | IC50 ([1]; Table 2, 1 h treatment): 10 to 30 µM; HCT116 (Ymin %) ([1]; Table 2): −4%; IC50 [2, 4]: 1 to 10 µM; SW480 (Ymin %) ([2]; Table 2): 4% |
| CSc1ncc2ncnc(Nc3c(F)ccc(NS(=O)(=O)c4ccccc4C#N)c3F)c2n1 [Example 5] |  |  |  |  | IC50 ([1]; Table 2, 1 h treatment): 10 to 30 µM; HCT116 (Ymin %) ([1]; Table 2): 8%; IC50 [2, 4]: 1 to 10 µM; SW480 (Ymin %) ([2]; Table 2): 8% |
| COc1ccc(S(=O)(=O)Nc2ccc(F)c(Nc3ncnc4cnc(-n5ccnc5C)nc34)c2F)cc1 [Example 32] | 10 to 30 µM | 1 to 10 µM | 1% | 8% |  |
| CSc1ncc2ncnc(Nc3c(F)ccc(NS(=O)(=O)c4ccc(Br)cc4F)c3F)c2n1 [Example 16] |  |  |  |  | IC50 ([1]; Table 2, 1 h treatment): 10 to 30 µM; HCT116 (Ymin %) ([1]; Table 2): 1%; IC50 [2, 4]: 1 to 10 µM; SW480 (Ymin %) ([2]; Table 2): 3% |
| COc1ccc(S(=O)(=O)Nc2ccc(F)c(Nc3ncnc4c(N)nc(-n5cnc(C)c5C)nc34)c2F)c(C)c1 [Example 86] |  |  |  |  | IC50 ([1]; Table 4, 1 h treatment): 1 to 10 µM; HCT116 (Ymin %) ([1]; Table 4): 8%; IC50 ([2]; Table 4, 1 h treatment, read-out: SW480 PERK IC50): 1 to 10 µM; SW480 (Ymin %) ([2]; Table 4): 3% |
| COc1ccc(S(=O)(=O)Nc2ccc(F)c(Nc3ncnc4cnc(SC)nc34)c2Cl)cc1 [Example 89] |  |  |  |  | IC50 ([1]; HCT116 cells, pERK): 10 to 30 µM; HCT116 pERK % Ymin (lowest value of the IC50 curve) ([1]; HCT116 cells, value in brackets, Ymin above −20% = minimal or no paradoxical induction): −5%; IC50 ([2]; SW480 cells, pERK, read-out: SW480 PERK IC50): 10 to 30 µM; SW480 pERK % Ymin (lowest value of the IC50 curve) ([2]; SW480 cells, value in brackets, Ymin above −20% = minimal or no paradoxical induction): 3.5% |
| CSc1ncc2ncnc(Nc3c(F)ccc(NS(=O)(=O)c4ccccc4Cl)c3F)c2n1 [Example 21] |  |  |  |  | IC50 ([1]; Table 2, 1 h treatment): 1 to 10 µM; HCT116 (Ymin %) ([1]; Table 2): 2%; IC50 [2, 4]: 1 to 10 µM; SW480 (Ymin %) ([2]; Table 2): 9% |
| COc1ccc(S(=O)(=O)Nc2ccc(F)c(Nc3ncnc4cnc(N5CCC(O)C5)nc34)c2F)cc1 (centres unmarked) [Example 42] | 10 to 30 µM | 10 to 30 µM | −2% | 11% |  |
| N#Cc1ccccc1S(=O)(=O)Nc1ccc(F)c(Nc2ncnc3cnc(N4CC[C@H](F)C4)nc23)c1F [Example 33] | 10 to 30 µM | 1 to 10 µM | −4% | 13% |  |
| CSc1ncc2ncnc(Nc3c(F)ccc(NS(=O)(=O)c4ccc(Cl)cc4C)c3F)c2n1 [Example 22] |  |  |  |  | IC50 ([1]; Table 2, 1 h treatment): 1 to 10 µM; HCT116 (Ymin %) ([1]; Table 2): −1%; IC50 [2, 4]: 1 to 10 µM; SW480 (Ymin %) ([2]; Table 2): −5% |
| COc1ccc(S(=O)(=O)Nc2ccc(F)c(Nc3ncnc4cnc(SC)nc34)c2F)c(C(F)(F)F)c1 [Example 14] |  |  |  |  | IC50 ([1]; Table 2, 1 h treatment): 1 to 10 µM; HCT116 (Ymin %) ([1]; Table 2): −5%; IC50 [2, 4]: 1 to 10 µM; SW480 (Ymin %) ([2]; Table 2): −6% |
| COc1ccc(S(=O)(=O)Nc2ccc(F)c(Nc3ncnc4cnc(N5CCC(O)C5)nc34)c2F)cc1 (centres unmarked) [Example 41] | 10 to 30 µM | 10 to 30 µM | 13% | 6% |  |
| COc1ccc(S(=O)(=O)Nc2ccc(F)c(Nc3ncnc4cnc(-n5cc(C)nc5C)nc34)c2F)cc1 [Example 37] | 1 to 10 µM | 1 to 10 µM | −5% | −6% |  |
| CSc1ncc2ncnc(Nc3c(F)ccc(NS(=O)(=O)c4ccc(F)cc4C#N)c3F)c2n1 [Example 10] |  |  |  |  | IC50 ([1]; Table 2, 1 h treatment): 10 to 30 µM; HCT116 (Ymin %) ([1]; Table 2): 9%; IC50 [2, 4]: 1 to 10 µM; SW480 (Ymin %) ([2]; Table 2): −9% |
| CSc1ncc2ncnc(Nc3c(F)ccc(NS(=O)(=O)c4ccc5c(c4)OCO5)c3F)c2n1 [Example 6] |  |  |  |  | IC50 ([1]; Table 2, 1 h treatment): 10 to 30 µM; HCT116 (Ymin %) ([1]; Table 2): −10%; IC50 [2, 4]: 1 to 10 µM; SW480 (Ymin %) ([2]; Table 2): 1% |
| COc1ccc(S(=O)(=O)Nc2ccc(F)c(Nc3ncnc4cnc(-n5cnc(C)c5C)nc34)c2F)cc1 [Example 40] | 1 to 10 µM | 1 to 10 µM | 12% | −7% |  |
| Cc1ncn(-c2ncc3ncnc(Nc4c(F)ccc(NS(=O)(=O)c5ccccc5C#N)c4F)c3n2)c1C [Example 34] | 10 to 30 µM | 1 to 10 µM | −3% | −2.0% |  |
